Molecules are shown by their SMILES.

The target in one assay is T1, MCT4 (Homo sapiens, UniProt O15427).
T1 sequence (O15427 1-465): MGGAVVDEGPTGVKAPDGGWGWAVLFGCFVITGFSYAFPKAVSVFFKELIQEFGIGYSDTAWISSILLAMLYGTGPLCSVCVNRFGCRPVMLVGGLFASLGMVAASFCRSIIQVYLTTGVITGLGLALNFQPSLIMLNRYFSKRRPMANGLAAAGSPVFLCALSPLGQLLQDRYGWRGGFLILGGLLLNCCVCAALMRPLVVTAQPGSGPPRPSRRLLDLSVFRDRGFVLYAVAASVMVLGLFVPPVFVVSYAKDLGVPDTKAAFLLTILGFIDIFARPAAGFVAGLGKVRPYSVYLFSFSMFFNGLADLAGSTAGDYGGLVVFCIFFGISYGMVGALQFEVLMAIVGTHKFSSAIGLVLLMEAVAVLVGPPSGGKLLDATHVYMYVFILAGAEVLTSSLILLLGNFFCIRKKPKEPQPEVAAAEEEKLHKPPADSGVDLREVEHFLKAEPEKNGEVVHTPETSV
Put plainly: Assay (a): lactate efflux from SK-Br-3 cells (lactate in media, 4 h). The arrangement: a natively glycolytic human breast adenocarcinoma line predominantly expressing MCT4; host or cells: SK-Br-3. Particulars: mean of at least three repeats (Example 32, marked *, two repeats), read-out: MCT4 lactate efflux pIC50 (SKBR3) (converted). The assay is classed as cell-based. How it is done:
Assay plates were lidded and incubated for 4 hours at 37° C. and 5% CO2.
On to `Cc1nc2nc(C)c(C[C@@H]3CCN(c4ccc(-c5ccc(CN6CCOCC6)nc5)cn4)C3)c(C)n2n1` [Example 1, (R)-4-((6′-(3-((2,5,7-trimethyl-[1,2,4]triazolo[1,5-a]pyrimidin-6-yl)methyl)pyrrolidin-1-yl)-[3,3′-bipyridin]-6-yl)methyl)morpholine], for which the IC50 is 316 pM. The same measure, in the same setting: with `Cc1nc2nc(C)c(C[C@@H]3CCN(c4ccc(-c5ccc(CN6CCN(C)CC6)nc5)cn4)C3)c(C)n2n1` [Example 4, (R)-2,5,7-trimethyl-6-((1-(6′-((4-methylpiperazin-1-yl)methyl)-[3,3′-bipyridin]-6-yl)pyrrolidin-3-yl)methyl)-[1,2,4]triazolo[1,5-a]pyrimidine] the figure was 631 pM; with `Cc1nc2nc(C)c(C[C@@H]3CCN(c4ccc(-c5ccc(CN6CCN(C)CC6)cc5)cn4)C3)c(C)n2n1` [Example 5, (R)-2,5,7-trimethyl-6-((1-(5-(4-((4-methylpiperazin-1-yl)methyl)phenyl)pyridin-2-yl)pyrrolidin-3-yl)methyl)-[1,2,4]triazolo[1,5-a]pyrimidine], 501 pM; with `Cc1nc2nc(C)c(C[C@@H]3CCN(c4ncc(-c5ccc(CN6CCOCC6)cc5)cn4)C3)c(C)n2n1` [Example 6, (R)-4-(4-(2-(3-((2,5,7-trimethyl-[1,2,4]triazolo[1,5-a]pyrimidin-6-yl)methyl)pyrrolidin-1-yl)pyrimidin-5-yl)benzyl)morpholine], 631 pM. On the same count and under the same terms, the result for `Cc1nc2nc(C)c(C[C@@H]3CCN(c4ccc(-c5cnc(CN6CCOCC6)cn5)nc4)C3)c(C)n2n1` [Example 7, (R)-4-((5-(5-(3-((2,5,7-trimethyl-[1,2,4]triazolo[1,5-a]pyrimidin-6-yl)methyl)pyrrolidin-1-yl)pyridin-2-yl)pyrazin-2-yl)methyl)morpholine] reads 316 pM; that for `Cc1nc2nc(C)c(C[C@@H]3CCN(c4ccc(-c5ccc(CN6CCN(C)CC6)cc5)nc4)C3)c(C)n2n1` [Example 8, (R)-2,5,7-trimethyl-6-((1-(6-(4-((4-methylpiperazin-1-yl)methyl)phenyl)pyridin-3-yl)pyrrolidin-3-yl)methyl)-[1,2,4]triazolo[1,5-a]pyrimidine], 631 pM. As to `COc1cc(CN2CCN(C)CC2)ccc1-c1ncc(N2CC[C@@H](Cc3c(C)nc4nc(C)nn4c3C)C2)cn1` [Example 12, (R)-6-((1-(2-(2-methoxy-4-((4-methylpiperazin-1-yl)methyl)phenyl)pyrimidin-5-yl)pyrrolidin-3-yl)methyl)-2,5,7-trimethyl-[1,2,4]triazolo[1,5-a]pyrimidine], the IC50 is 3980 pM.

For the molecule `Cc1nc2nc(C)c(C[C@@H]3CCN(c4cnc(-c5ccc(CN6CCN(C)CC6)cc5C)nc4)C3)c(C)n2n1` [Example 13, (R)-2,5,7-trimethyl-6-((1-(2-(2-methyl-4-((4-methylpiperazin-1-yl)methyl)phenyl)pyrimidin-5-yl)pyrrolidin-3-yl)methyl)-[1,2,4]triazolo[1,5-a]pyrimidine], the IC50 is 2510 pM. As for `Cc1nc2nc(C)c(C[C@@H]3CCN(c4cnc(-c5ccc(CN6C[C@@H](C)N[C@@H](C)C6)cc5)nc4)C3)c(C)n2n1` [Example 14, 6-(((R)-1-(2-(4-(((3R,5S)-3,5-dimethylpiperazin-1-yl)methyl)phenyl)pyrimidin-5-yl)pyrrolidin-3-yl)methyl)-2,5,7-trimethyl-[1,2,4]triazolo[1,5-a]pyrimidine], the IC50 was 2000 pM. Regarding `Cc1nc2nc(C)c(C[C@@H]3CCN(c4cnc(-c5ccc(CN6CCN(CC(=O)N(C)C)CC6)cc5)nc4)C3)c(C)n2n1` [Example 15, (R)—N,N-dimethyl-2-(4-(4-(5-(3-((2,5,7-trimethyl-[1,2,4]triazolo[1,5-a]pyrimidin-6-yl)methyl)pyrrolidin-1-yl)pyrimidin-2-yl)benzyl)piperazin-1-yl)acetamide], the IC50 was 1000 pM. Same read-out and setting: the result for `CC(=O)N1CCN(Cc2ccc(-c3ncc(N4CC[C@@H](Cc5c(C)nc6nc(C)nn6c5C)C4)cn3)cc2)CC1` [Example 17, (R)-1-(4-(4-(5-(3-((2,5,7-trimethyl-[1,2,4]triazolo[1,5-a]pyrimidin-6-yl)methyl)pyrrolidin-1-yl)pyrimidin-2-yl)benzyl)piperazin-1-yl)ethanone] reads 251 pM. Still for that read-out and setting: the result for `COCCN1CCN(Cc2ccc(-c3ncc(N4CC[C@@H](Cc5c(C)nc6nc(C)nn6c5C)C4)cn3)cc2)CC1` [Example 18, (R)-6-((1-(2-(4-((4-(2-methoxyethyl)piperazin-1-yl)methyl)phenyl)pyrimidin-5-yl)pyrrolidin-3-yl)methyl)-2,5,7-trimethyl-[1,2,4]triazolo[1,5-a]pyrimidine] reads 631 pM; that for `Cc1nc2nc(C)c(C[C@@H]3CCN(c4ccc(-c5cnc(CN6CCN(C)CC6)nc5)cc4)C3)c(C)n2n1` [Example 22, (R)-2,5,7-trimethyl-6-((1-(4-(2-((4-methylpiperazin-1-yl)methyl)pyrimidin-5-yl)phenyl)pyrrolidin-3-yl)methyl)-[1,2,4]triazolo[1,5-a]pyrimidine], 1000 pM. Same read-out and setting: the result for `Cc1nc2nc(C)c(C[C@@H]3CCN(c4ccc(-c5ncc(CN6CCN(C)CC6)cn5)cc4)C3)c(C)n2n1` [Example 25, (R)-2,5,7-trimethyl-6-((1-(4-(5-((4-methylpiperazin-1-yl)methyl)pyrimidin-2-yl)phenyl)pyrrolidin-3-yl)methyl)-[1,2,4]triazolo[1,5-a]pyrimidine] reads 794 pM. In the case of `Cc1nc2nc(C)c(C[C@@H]3CCN(c4ccc(-c5cnc(CN6CCOCC6)nc5)cc4)C3)c(C)n2n1` [Example 28, (R)-4-((5-(4-(3-((2,5,7-trimethyl-[1,2,4]triazolo[1,5-a]pyrimidin-6-yl)methyl)pyrrolidin-1-yl)phenyl)pyrimidin-2-yl)methyl)morpholine], the IC50 was 251 pM. For the molecule `Cc1nc2nc(C)c(C[C@@H]3CCN(c4cnc(-c5ccc(CN6C[C@@H](C)N(C)[C@@H](C)C6)cc5)cn4)C3)c(C)n2n1` [Example 32, 2,5,7-trimethyl-6-(((R)-1-(5-(4-(((3R,5S)-3,4,5-trimethylpiperazin-1-yl)methyl)phenyl)pyrazin-2-yl)pyrrolidin-3-yl)methyl)-[1,2,4]triazolo[1,5-a]pyrimidine], the IC50 was 1260 pM.

In the case of `Cc1nc2nc(C)c(C[C@@H]3CCN(c4cnc(-c5ccc(CN6CCN(C)[C@H](C)C6)cc5)cn4)C3)c(C)n2n1` [Example 33, 6-(((R)-1-(5-(4-(((R)-3,4-dimethylpiperazin-1-yl)methyl)phenyl)pyrazin-2-yl)pyrrolidin-3-yl)methyl)-2,5,7-trimethyl-[1,2,4]triazolo[1,5-a]pyrimidine], the IC50 is 2510 pM.

As to `Cc1nc2nc(C)c(C[C@@H]3CCN(c4cnc(-c5ccc(CN6CCN(C)CC6)cn5)cn4)C3)c(C)n2n1` [Example 39, (R)-2,5,7-trimethyl-6-((1-(5-(5-((4-methylpiperazin-1-yl)methyl)pyridin-2-yl)pyrazin-2-yl)pyrrolidin-3-yl)methyl)-[1,2,4]triazolo[1,5-a]pyrimidine], the IC50 is 2510 pM. The same measure, in the same setting: the result for `Cc1nc2nc(C)c(C[C@@H]3CCN(c4cnc(-c5ccc(CN6CCC(CO)CC6)cc5)cn4)C3)c(C)n2n1` [Example 44, {1-[4-(5-{(3R)-3-[(2,5,7-trimethyl[1,2,4]triazolo[1,5-a]pyrimidin-6-yl)methyl]pyrrolidin-1-yl}pyrazin-2-yl)benzyl]piperidin-4-yl}methanol] reads 631 pM. The same measure, in the same setting: the result for `Cc1nc2nc(C)c(C[C@@H]3CCN(c4cnc(-c5ccc(CN6CCS(=O)(=O)CC6)cc5)cn4)C3)c(C)n2n1` [Example 45, 6-{[(3R)-1-(5-{4-[(1,1-dioxidothiomorpholin-4-yl)methyl]phenyl}pyrazin-2-yl)pyrrolidin-3-yl]methyl}-2,5,7-trimethyl[1,2,4]triazolo[1,5-a]pyrimidine] reads 200 pM.

Take `Cc1nc2nc(C)c(C[C@@H]3CCN(c4cnc(-c5ccc(CN6CCC(S(C)(=O)=O)CC6)cc5)cn4)C3)c(C)n2n1` [Example 46, 2,5,7-trimethyl-6-({(3R)-1-[5-(4-{[4-(methylsulfonyl)piperidin-1-yl]methyl}phenyl)pyrazin-2-yl]pyrrolidin-3-yl}methyl)[1,2,4]triazolo[1,5-a]pyrimidine]: the IC50 was 200 pM. As for `CC(=O)N1CCCN(Cc2ccc(-c3cnc(N4CC[C@@H](Cc5c(C)nc6nc(C)nn6c5C)C4)cn3)cc2)CC1` [Example 79, 1-[4-[[4-[5-[(3R)-3-[(2,5,7-trimethyl-[1,2,4]triazolo[1,5-a]pyrimidin-6-yl)methyl]pyrrolidin-1-yl]pyrazin-2-yl]phenyl]methyl]-1,4-diazepan-1-yl]ethanone], the IC50 was 316 pM. Turning to `Cc1nc2nc(C)c(C[C@@H]3CCN(c4cnc(-c5ccc(CN6CCCN(C)CC6)cc5)cn4)C3)c(C)n2n1` [Example 83, (R)-2,5,7-trimethyl-6-((1-(5-(4-((4-methyl-1,4-diazepan-1-yl)methyl)phenyl)pyrazin-2-yl)pyrrolidin-3-yl)methyl)-[1,2,4]triazolo[1,5-a]pyrimidine], the IC50 is 794 pM.

The target in the next assay is T1, MCT4. In words: cell-based.
Details: not given
As to `Cc1nc2nc(C)c(C[C@@H]3CCN(c4ccc(-c5ccc(CN6CCN(C)CC6)nc5)cn4)C3)c(C)n2n1` [Example 4, (R)-2,5,7-trimethyl-6-((1-(6′-((4-methylpiperazin-1-yl)methyl)-[3,3′-bipyridin]-6-yl)pyrrolidin-3-yl)methyl)-[1,2,4]triazolo[1,5-a]pyrimidine], the IC50 is 39800 pM. For `Cc1nc2nc(C)c(C[C@@H]3CCN(c4ccc(-c5ccc(CN6CCN(C)CC6)cc5)cn4)C3)c(C)n2n1` [Example 5, (R)-2,5,7-trimethyl-6-((1-(5-(4-((4-methylpiperazin-1-yl)methyl)phenyl)pyridin-2-yl)pyrrolidin-3-yl)methyl)-[1,2,4]triazolo[1,5-a]pyrimidine], the IC50 is 12600 pM. Same read-out and setting: the result for `Cc1nc2nc(C)c(C[C@@H]3CCN(c4ncc(-c5ccc(CN6CCOCC6)cc5)cn4)C3)c(C)n2n1` [Example 6, (R)-4-(4-(2-(3-((2,5,7-trimethyl-[1,2,4]triazolo[1,5-a]pyrimidin-6-yl)methyl)pyrrolidin-1-yl)pyrimidin-5-yl)benzyl)morpholine] reads 7940 pM; that for `Cc1nc2nc(C)c(C[C@@H]3CCN(c4ccc(-c5ccc(CN6CCN(C)CC6)cc5)nc4)C3)c(C)n2n1` [Example 8, (R)-2,5,7-trimethyl-6-((1-(6-(4-((4-methylpiperazin-1-yl)methyl)phenyl)pyridin-3-yl)pyrrolidin-3-yl)methyl)-[1,2,4]triazolo[1,5-a]pyrimidine], 25100 pM.
